According to US20230398130A1, “METHODS AND COMPOSITIONS FOR DIFFERENTIATING STEM CELLS” (Massachusetts Institute of Technology, priority 2020, published 2023):

Columns and labels:
[1] = system: ISC-enriched organoids; assay: Primary screen, 384-well 2.5-D organoid differentiation (ENR+CD, 6 days): basal lysozyme secretion (LYZ.NS); type: cell-based, murine; settings: for Dose.FC.LYZ.NS: ENR+CD, 6 days, FC vs plate median; for Z.LYZ.NS: standard z score of FC
Excerpt: (§1) High-throughput screening.

[2] = system: ISC-enriched organoids; assay: Primary screen, 384-well 2.5-D organoid differentiation (ENR+CD, 6 days): carbachol-induced lysozyme secretion (LYZ.S); type: cell-based, murine; settings: ENR+CD, 6 days, FC vs plate median
Excerpt: as §1

[3] = system: ISC-enriched organoids; assay: Secondary (validation) screen, 384-well 2.5-D, ENR+CD 6 days, n=8 wells, vs ENR+CD+DMSO control: ATP (CTG); type: cell-based, murine; design: key to Dose.FC.CTG: log10 fold change vs median of vehicle control wells
Description: (§2) Drugs were tested at a narrowed dose range around each treatment's identified optimal dose from the primary screen (4× below, 2× above and below).
as §1
(§3) Secondary lysozyme secretion assay screen. Confirmatory secondary screening with primary hits was performed using the above 384-well plate method. The screen was conducted with 4-plate replicates with a base media of ENR+CD. Media was supplemented with compound at day 0 and day 3 (n=8 well replicates per dose) at four different doses: two-fold above, two-fold below, and four-fold below the optimal final dose for each respective treatment. Additionally, each plate carried a large number of ENR+DMSO or ENR+CD+DMSO (vehicle) control wells (n=100 for ATP, and n=25 for LYZ.NS and LYZ.S) for robust normalization. ATP, non-stimulated lysozyme activity and CCh-stimulated lysozyme activity was again measured and the collected data was again processed in a custom R-script, per primary screen with slight modification. Values were log10 transformed, and a plate-wise FC was calculated for each well based on the median value of ENR+CD+DMSO (vehicle) control wells to normalize plate to plate variability.

[4] = system: ISC-enriched organoids; assay: Secondary (validation) screen, 384-well 2.5-D, ENR+CD 6 days, n=8 wells, vs ENR+CD+DMSO control: basal lysozyme secretion (LYZ.NS); type: cell-based, murine; design: key to Dose.FC.LYZ.NS: log10 fold change vs median of vehicle control wells
Description: as §2, §1, §3

[5] = system: ISC-enriched organoids; assay: Secondary (validation) screen, 384-well 2.5-D, ENR+CD 6 days, n=8 wells, vs ENR+CD+DMSO control: carbachol-induced lysozyme secretion (LYZ.S); type: cell-based, murine
Description: as §2, §1, §3

[6] = system: ISC-enriched organoids; assay: Primary screen, 384-well 2.5-D organoid differentiation (ENR+CD, 6 days, Target Selective Inhibitor Library, vs whole-plate median): ATP (CellTiter-Glo 3D, CTG); settings: for Dose.FC.CTG: ENR+CD, 6 days, FC vs plate median; for Z.CTG: standard z score of FC

NC1(Cc2ccc(Cl)cc2)CCN(c2ncnc3[nH]ccc23)CC1 [CCT128930, reference compound]
Dose.FC.LYZ.NS ([1]; Dose 0.08 uM): 0.323 log 2 fold change
Z.LYZ.NS ([1]; Dose 0.08 uM): 2.811
Dose.FC.LYZ.NS ([1]; Dose 0.40 uM): −0.018 log 2 fold change
Z.LYZ.NS ([1]; Dose 0.40 uM): −0.154
Dose.FC.LYZ.NS ([1]; Dose 2.00 uM): 0.073 log 2 fold change
Z.LYZ.NS ([1]; Dose 2.00 uM): 0.633
Dose.FC.LYZ.NS ([1]; Dose 10.00 uM): −0.150 log 2 fold change
Z.LYZ.NS ([1]; Dose 10.00 uM): −1.307
Dose.FC.LYZ.S ([2]; Dose 0.08 uM): 0.266 log 2 fold change
Dose.FC.LYZ.S ([2]; Dose 0.40 uM): −0.007 log 2 fold change
Dose.FC.LYZ.S ([2]; Dose 2.00 uM): 0.053 log 2 fold change
Dose.FC.LYZ.S ([2]; Dose 10.00 uM): −0.201 log 2 fold change
Dose.FC.CTG ([3]; Dose 0.02 uM): −0.117
Z.CTG ([3]; Dose 0.02 uM): −1.054
repSSMD.CTG ([3]; Dose 0.02 uM): −0.787
Dose.FC.CTG ([3]; Dose 0.04 uM): 0.122
Z.CTG ([3]; Dose 0.04 uM): 1.101
repSSMD.CTG ([3]; Dose 0.04 uM): 0.922
Dose.FC.CTG ([3]; Dose […]): −0.088
Dose.FC.CTG ([3]; dose 0.08 uM): 0.166
Z.CTG ([3]; dose 0.08 uM): 1.494
repSSMD.CTG ([3]; dose 0.08 uM): 1.047
Dose.FC.LYZ.NS ([4]; Dose 0.02 uM): −0.241
Z.LYZ.NS ([4]; Dose 0.02 uM): −1.927
repSSMD.LYZ.NS ([4]; Dose 0.02 uM): −2.551
Dose.FC.LYZ.NS ([4]; Dose 0.04 uM): −0.020
Z.LYZ.NS ([4]; Dose 0.04 uM): −0.164
repSSMD.LYZ.NS ([4]; Dose 0.04 uM): −0.204
Dose.FC.LYZ.NS ([4]; Dose […]): −0.160
Dose.FC.LYZ.NS ([4]; dose 0.08 uM): 0.031
Z.LYZ.NS ([4]; dose 0.08 uM): 0.248
repSSMD.LYZ.NS ([4]; dose 0.08 uM): 0.366
Z.LYZ.S ([5]; Dose 0.02 uM): −2.445
log10 fold change in stimulated lysozyme secretion vs vehicle control ([5]; Dose 0.02 uM): −0.319
repSSMD.LYZ.S ([5]; Dose 0.02 uM): −3.825
Z.LYZ.S ([5]; Dose 0.04 uM): −0.108
log10 fold change in stimulated lysozyme secretion vs vehicle control ([5]; Dose 0.04 uM): −0.014
repSSMD.LYZ.S ([5]; Dose 0.04 uM): −0.157
log10 fold change in stimulated lysozyme secretion vs vehicle control ([5]; Dose […]): −0.217
Z.LYZ.S ([5]; dose 0.08 uM): 0.041
log10 fold change in stimulated lysozyme secretion vs vehicle control ([5]; dose 0.08 uM): 0.005
repSSMD.LYZ.S ([5]; dose 0.08 uM): 0.069
Dose.FC.CTG ([6]; Dose 0.08 uM): 0.095 log 2 fold change
Z.CTG ([6]; Dose 0.08 uM): 0.228
Dose.FC.CTG ([6]; Dose 0.40 uM): −0.025 log 2 fold change
Z.CTG ([6]; Dose 0.40 uM): −0.060
Dose.FC.CTG ([6]; Dose 2.00 uM): 0.127 log 2 fold change
Z.CTG ([6]; Dose 2.00 uM): 0.304
Dose.FC.CTG ([6]; Dose 10.00 uM): −0.175 log 2 fold change
Z.CTG ([6]; Dose 10.00 uM): −0.418

CC(C)(C)NC(=O)[C@H]1CC[C@H]2[C@@H]3CC[C@H]4NC(=O)C=C[C@]4(C)[C@H]3CC[C@]12C [Finasteride]
Z.CTG ([3]; Dose 0.02 uM): 0.596
repSSMD.CTG ([3]; Dose 0.02 uM): 0.358
Z.CTG ([3]; Dose 0.04 uM): −1.623
repSSMD.CTG ([3]; Dose 0.04 uM): −0.994
Z.CTG ([3]; dose 0.08 uM): −0.099
repSSMD.CTG ([3]; dose 0.08 uM): −0.083
Z.LYZ.NS ([4]; Dose 0.02 uM): 0.445
repSSMD.LYZ.NS ([4]; Dose 0.02 uM): 0.362
Z.LYZ.NS ([4]; Dose 0.04 uM): −1.510
repSSMD.LYZ.NS ([4]; Dose 0.04 uM): −2.570
Z.LYZ.NS ([4]; dose 0.08 uM): −1.522
repSSMD.LYZ.NS ([4]; dose 0.08 uM): −2.177
Z.LYZ.S ([5]; Dose 0.02 uM): −0.147
repSSMD.LYZ.S ([5]; Dose 0.02 uM): −0.197
Z.LYZ.S ([5]; Dose 0.04 uM): −1.996
repSSMD.LYZ.S ([5]; Dose 0.04 uM): −3.825
Z.LYZ.S ([5]; dose 0.08 uM): −1.859
repSSMD.LYZ.S ([5]; dose 0.08 uM): −2.574
Z.CTG ([6]; Dose 0.08 uM): 0.360
Z.CTG ([6]; Dose 0.40 uM): −0.092
Z.CTG ([6]; Dose 2.00 uM): 0.174
Z.CTG ([6]; Dose 10.00 uM): −0.097
